# Source: ChEMBL document CHEMBL4359811, “Development of Potent and Selective Pyrazolopyrimidine IRAK4 Inhibitors” (J Med Chem, 2019)
# Key:
# [1] = target: T1, Interleukin-1 receptor-associated kinase 4 (Homo sapiens, UniProt Q9NWZ3); experiment: Inhibition of human recombinant full length His6-tagged IRAK4 expressed in baculovirus expression system using H-KKARFSRFAGSSPSQSSMVAR as substrate incubated for 90 mins by fluorescence polarisation assay
# T1 sequence (Q9NWZ3 whole entry): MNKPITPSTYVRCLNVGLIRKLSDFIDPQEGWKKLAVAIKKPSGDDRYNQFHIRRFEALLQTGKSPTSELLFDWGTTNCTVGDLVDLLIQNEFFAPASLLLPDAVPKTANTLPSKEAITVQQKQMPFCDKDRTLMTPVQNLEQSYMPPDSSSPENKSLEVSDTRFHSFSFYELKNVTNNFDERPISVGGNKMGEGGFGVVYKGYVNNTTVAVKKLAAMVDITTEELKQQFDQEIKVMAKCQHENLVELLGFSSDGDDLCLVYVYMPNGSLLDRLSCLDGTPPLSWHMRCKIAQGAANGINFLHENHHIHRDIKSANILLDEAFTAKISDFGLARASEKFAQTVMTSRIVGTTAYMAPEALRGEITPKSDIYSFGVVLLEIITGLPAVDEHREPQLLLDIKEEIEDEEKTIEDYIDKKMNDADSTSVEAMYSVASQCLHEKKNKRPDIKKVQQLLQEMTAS
# [2] = target: Interleukin-1 receptor-associated kinase 1 (Homo sapiens, UniProt P51617); experiment: Inhibition of human recombinant full length N-terminal His6-tagged IRAK1 (Argl94 to Ser712 residues) expressed in insect cells using H-KKARFSRFAGSSPSQSSMVAR as substrate incubated for 60 mins by fluorescence polarisation assay
# Sequence of Interleukin-1 receptor-associated kinase 1 (P51617 whole entry): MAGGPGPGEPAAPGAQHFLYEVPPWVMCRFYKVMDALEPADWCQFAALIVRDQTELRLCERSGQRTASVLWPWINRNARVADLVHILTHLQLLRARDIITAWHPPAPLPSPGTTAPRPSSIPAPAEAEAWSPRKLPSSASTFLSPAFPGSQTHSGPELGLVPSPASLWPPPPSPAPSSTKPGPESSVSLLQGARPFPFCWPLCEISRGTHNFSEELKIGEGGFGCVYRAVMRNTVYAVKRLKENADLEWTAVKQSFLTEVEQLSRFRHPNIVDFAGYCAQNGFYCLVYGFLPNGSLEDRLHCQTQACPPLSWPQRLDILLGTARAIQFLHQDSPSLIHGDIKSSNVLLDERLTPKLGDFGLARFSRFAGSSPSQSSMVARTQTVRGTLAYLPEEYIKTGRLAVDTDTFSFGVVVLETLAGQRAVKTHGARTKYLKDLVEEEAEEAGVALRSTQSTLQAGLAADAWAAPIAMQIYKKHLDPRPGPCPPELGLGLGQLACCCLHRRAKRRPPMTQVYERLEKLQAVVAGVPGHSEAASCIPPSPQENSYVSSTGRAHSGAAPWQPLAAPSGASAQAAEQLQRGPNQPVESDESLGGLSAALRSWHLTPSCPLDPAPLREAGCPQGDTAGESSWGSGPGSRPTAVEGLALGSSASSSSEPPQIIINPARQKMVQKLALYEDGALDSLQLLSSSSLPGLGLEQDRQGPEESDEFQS
# [3] = target: T1, Interleukin-1 receptor-associated kinase 4; experiment: Inhibition of IRAK4 in human THP1-Xblue-MD2-CD14 cells assessed as reduction in LPS-induced NFkappaB transcription by measuring alkaline phosphatase level preincubated for 1 hr followed by LPS stimulation and measured after 20 hrs by quanti-blue reagent based reporter assay
# [4] = Protein binding in human plasma at 5 uM incubated for 4 hrs by LC-MS/MS analysis; type: ADME, cell-free; conditions: read-out: PPB (converted)
# [5] = Cmax in mouse at 5 mg/kg, po; type: ADME, organism-based; set-up: dose 5 mg/kg, route oral; conditions: in vivo, read-out: Cmax
# [6] = Volume of distribution at steady state in mouse at 1 mg/kg, iv; type: ADME, organism-based; conditions: in vivo, read-out: Vdss
# [7] = Blood clearance in mouse at 1 mg/kg, iv; type: ADME, organism-based; conditions: whole blood
# [8] = Protein binding in mouse plasma at 5 uM incubated for 4 hrs by LC-MS/MS analysis; type: ADME, cell-free; conditions: read-out: PPB (converted)
# [9] = AUC (infinity) in mouse at 5 mg/kg, po; type: ADME, organism-based; set-up: dose 5 mg/kg, route oral, time infinity; conditions: in vivo
# [10] = Oral bioavailability in mouse at 5 mg/kg; type: ADME, organism-based; conditions: in vivo
# [11] = Apparent permeability from apical to basolateral side in MDCK cells at 10 uM incubated for 180 mins and measured up to 180 min by LC-MS/MS analysis; type: ADME, cell-based, Canis lupus familiaris; conditions: dog
# [12] = Kinetic aqueous solubility of the compound in PBS buffer at pH 7.4 incubated for 24 hrs under shaking condition by LC-CLND assay; type: physicochemical; conditions: for solubility kinetic at 24 h: PBS buffer, pH 7.4, read-out: Kinetic_solubility
# [13] = target: T1, Interleukin-1 receptor-associated kinase 4; experiment: Inhibition of recombinant IRAK4 (unknown origin) using KKARFSRFAGSSPSQSSMVAR as substrate in presence of [gamma33P]-ATP by liquid scintillation counting method
# [14] = target: T2, Interleukin-1 receptor-associated kinase 4 (Homo sapiens) (UniProt Q9NWZ3); experiment: Inhibition of human recombinant full length His6-tagged IRAK4 expressed in baculovirus expression system at 1 uM relative to control
# T2 sequence (whole entry): T1 sequence (Q9NWZ3 whole entry)
# [15] = Oral bioavailability in mouse at 10 mg/kg; type: ADME, organism-based; conditions: in vivo
# [16] = AUC (infinity) in mouse at 30 mg/kg, po; type: ADME, organism-based; set-up: dose 30 mg/kg, time infinity, route oral; conditions: in vivo
# [17] = AUC (infinity) in mouse at 10 mg/kg, po; type: ADME, organism-based; set-up: dose 10 mg/kg, route oral, time infinity; conditions: in vivo
# [18] = Oral bioavailability in mouse at 30 mg/kg; type: ADME, organism-based; conditions: in vivo
# [19] = Cmax in mouse at 10 mg/kg, po; type: ADME, organism-based; set-up: dose 10 mg/kg, route oral; conditions: in vivo
# [20] = Cmax in mouse at 100 mg/kg, po administered as suspension in MCT; type: ADME, organism-based; set-up: dose 100 mg/kg, route oral; conditions: in vivo
# [21] = AUC (infinity) in mouse at 100 mg/kg, po administered as suspension in MCT; type: ADME, organism-based; set-up: dose 100 mg/kg, time infinity, route oral; conditions: in vivo
# [22] = Cmax in mouse at 30 mg/kg, po; type: ADME, organism-based; set-up: dose 30 mg/kg, route oral; conditions: in vivo
# [23] = Oral bioavailability in mouse at 100 mg/kg administered as suspension in MCT; type: ADME, organism-based; conditions: in vivo
# Homo sapiens = species: Homo sapiens; experiment: Selectivity ratio, ratio of Ki for human recombinant full length N-terminal His6-tagged IRAK1 (Argl94 to Ser712 residues) expressed in insect cells to Ki for human recombinant full length His6-tagged IRAK4 expressed in baculovirus expression system
# [24] = Cytotoxicity against human THP1-Xblue-MD2-CD14 cells assessed as reduction in cell viability up to 20 uM preincubated for 1 hr followed by LPS stimulation and measured after 20 hrs; type: cell-based
# [25] = Lipophilicity, log D of the compound; type: physicochemical; conditions: octanol/water
Ki [1] [nM],Ki [2] [nM],IC50 [3] [nM],"Papp A→B at 3 h, 10 µM [11] [×10⁻⁶ cm/s]",solubility kinetic at 24 h [12] [µM],SMILES,other results
26,500,98,,,CN(C)c1ccc2cc(NC(=O)c3cnn4cccnc34)c(N3CCCCC3)cc2n1,
1.8,> 6100,97,2.4,,Cn1c(N2CCOCC2)nc2cc(N3CCC(CO)CC3)c(NC(=O)c3cnn4cccnc34)cc21,"fraction unbound at 4 h, 5 µM [4]: 0.12; Cmax [5]: 200 nM; Vd [6]: 0.4 L/kg; clearance [7]: 23 mL/min/kg; fraction unbound at 4 h, 5 µM [8]: 0.05; AUC(0-inf) [9]: 0.5 µM·h; bioavailability [10]: 3%"
7.4,,230,13,130,CN1CCC2(CC1)Cc1cc(NC(=O)c3cnn4cccnc34)c(N3CCOCC3)cc1O2,
170,5400,3000,,,O=C(Nc1cc2cnc(N3CCOCC3)nc2cc1N1CCCCC1)c1cnn2cccnc12,
,,140,,7.1,CC1(C)Cc2cc(NC(=O)c3cnn4cccnc34)c(N3CCCC3)cc2O1,
,,,,,COc1cc2ccccc2cc1NC(=O)c1cnn2cccnc12,Ki [13]: 610 nM
0.8,190,76,12,,O=C(Nc1cc2sc(N3CCOCC3)nc2cc1N1CCOCC1)c1cnn2cccnc12,"fraction unbound at 4 h, 5 µM [4]: 0.05; inhibition [14]: > 70%; Cmax [5]: 200 nM; F [15]: 25%; AUC(0-inf) [16]: 11 µM·h; Vd [6]: 0.9 L/kg; AUC [17]: 12 µM·h; bioavailability [18]: 12%; Kinetic_solubility ([12]; buffer, pH 7.4, 24 h): Insoluble; fraction unbound at 4 h, 5 µM [8]: 0.01; AUC(0-inf) [9]: 0.6 µM·h; bioavailability [10]: 5%; Cmax [19]: 1300 nM; Cmax [20]: 3300 nM; AUC [21]: 40 µM·h; Cmax [22]: 2000 nM; F [23]: 6%"
0.5,95,53,,,CN(C)c1nc2cc(N3CCC(CO)CC3)c(NC(=O)c3cnn4cccnc34)cc2s1,inhibition [14]: > 70%
95,> 10000,910,,,CCn1c(N2CCOCC2)nc2cc(N3CCC(CO)CC3)c(NC(=O)c3cnn4cccnc34)cc21,
> 8400,,> 20000,,77,CC1(C)Cc2cc(NC(=O)c3cnn4c(O)ccnc34)c(N3CCOCC3)cc2O1,
5.3,,170,14,1,CC1(C)Cc2cc(NC(=O)c3cnn4cccnc34)c(N3CCOCC3)cc2O1,Ratio Ki (Homo sapiens): 220
,,38,16,95,CC1(C)Cc2cc(NC(=O)c3cnn4cccnc34)c(N3CCC(CO)CC3)cc2O1,Ratio Ki (Homo sapiens): 210
,,56,,1,CC1(C)Cc2cc(NC(=O)c3cnn4cccnc34)c(N3CCC(C(O)C(F)(F)F)CC3)cc2O1 (stereo unspecified),
,,,,,O=C(Nc1cc2cccnc2cc1N1CCCCC1)c1cnn2cccnc12,Ki [13]: 8 nM
,,53,,7.1,CC1(C)Cc2cc(NC(=O)c3cnn4cccnc34)c(N3CCC(C(N)=O)CC3)cc2O1,
2,510,41,,22,NCC1CCN(c2cc3ncccc3cc2NC(=O)c2cnn3cccnc23)CC1,Ratio Ki (Homo sapiens): > 200; Activity [24]: Non-Toxic; logD [25]: 0.79
2.1,,25,2.6,10,CC1(C)Cc2cc(NC(=O)c3cnn4cccnc34)c(N3CCN(CC(N)=O)CC3)cc2O1,
,,56,,110,CC1(C)Cc2cc(NC(=O)c3cnn4cccnc34)c(N3CCNCC3)cc2O1,
6.1,,84,2.7,1,CC1(C)Cc2cc(NC(=O)c3cnn4cc(C#N)cnc34)c(N3CCOCC3)cc2O1,
